Test results reported in PubChem BioAssay (NCI).
Where “and” joins values, the source holds several entries; their conditions need not be identical. Identical values can stand only once.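 Dose response: 5 concentrations. Exposure: 48 h. Format: 96-well plates. Endpoint: linear interpolation; highest concentration if not reached. GI50 is the concentration that inhibits growth by half. Definition used: TGI = concentration required for complete inhibition of growth.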

Experiments:
Assay in all cases: growth of human tumour cells (NCI), 48 h
BT-549 breast = test system: BT-549 breast
NCI-H522 lung = test system: NCI-H522 lung
SW-620 colon = test system: SW-620 colon
NCI-H460 lung = test system: NCI-H460 lung
SK-MEL-5 melanoma = test system: SK-MEL-5 melanoma
UO-31 renal = test system: UO-31 renal
DU-145 prostate = test system: DU-145 prostate
SNB-75 CNS = test system: SNB-75 CNS

Compound | GI50 (BT-549 breast) | TGI (BT-549 breast) | GI50 (NCI-H522 lung) | TGI (NCI-H522 lung) | GI50 (SW-620 colon) | TGI (SW-620 colon) | GI50 (NCI-H460 lung) | TGI (NCI-H460 lung) | GI50 (SK-MEL-5 melanoma) | TGI (SK-MEL-5 melanoma) | GI50 (UO-31 renal) | TGI (UO-31 renal) | GI50 (DU-145 prostate) | TGI (DU-145 prostate) | GI50 (SNB-75 CNS) | TGI (SNB-75 CNS)
CCOC(=O)c1c(-c2ccc(OC)cc2)c(C#N)c2c(C#N)c(N)nn2c1N | 2.65 µM | 28.1 µM | 2.55 µM | 12.5 µM | 5.62 µM | > 100 µM | 3.67 µM | 30.9 µM | 1.78 µM | 4.41 µM | 3.49 µM | 90 µM | 4.93 µM | > 100 µM | 1.84 µM | 7.59 µM
C[C@H]1CN[C@@H]2[C@@H](C)[C@H]3[C@@H](C[C@H]4[C@@H]5CC[C@H]6C[C@@H](N)CC[C@]6(C)[C@H]5CC[C@]34C)O[C@@]2(O)C1 |  | 7.24 µM |  | 5.91 µM |  | 6.23 µM |  | 7.78 µM |  | 10.4 µM |  | 5.79 µM |  | 16.9 µM |  | 9.52 µM
Cc1nc2cc(Nc3nc(Nc4ccc(F)cc4)nc(-c4cccs4)n3)ccc2n1Cc1ccccc1 | 15.8 µM | 40.7 µM | 2.66 µM | 9.16 µM | 4.02 µM | 38.8 µM | 3.78 µM | 20.4 µM | 4.18 µM | 17.3 µM | 3.75 µM | 17.5 µM | 7.7 µM | > 100 µM | 2.94 µM | > 100 µM
COc1cc(/C=C\c2cc(OC)c(OC)c(OC)c2)cc(N/C=C\C(=O)c2cc(OC)c(OC)c(OC)c2)c1OC |  |  |  |  | 4.12 µM | > 100 µM | 3.93 µM | > 100 µM | 1.69 µM | 4.48 µM | 2.63 µM | > 100 µM | 3.64 µM | > 100 µM | 1.39 µM | 4.81 µM
C=CCc1ccc(O)c(-c2ccc(O)c(CC=C)c2)c1 | 13.2 µM | 27.5 µM | 10.4 µM | 26.2 µM | 18.7 µM | 36.9 µM | 14.1 µM | 35.3 µM | 10.8 µM | 23.4 µM | 12.4 µM | 27.3 µM | 15.8 µM | 30.9 µM | 22.1 µM | > 46.6 µM
COc1ccccc1Nc1ncc(-c2ccccc2)o1 | > 25 µM | > 25 µM | > 25 µM | > 25 µM | > 25 µM | > 25 µM | > 25 µM | > 25 µM | > 25 µM | > 25 µM | 13.7 µM | > 25 µM | > 25 µM | > 25 µM | > 25 µM | > 25 µM
COc1ccc(C(O)(CCC(C)C)C(CN2CCOCC2)c2ccc(Cl)cc2)cc1 (stereo unspecified) | 14.9 µM | 30 µM | 6.7 µM | 21.6 µM | 11.4 µM | 26.8 µM | 11.4 µM | 31.6 µM | 13.8 µM | 30.9 µM | 11.3 µM | 25.9 µM | 15.4 µM | 29.5 µM | 13 µM | 35.2 µM
Cc1ccc(Nc2oc(-c3ccccc3)nc2[P+](c2ccccc2)(c2ccccc2)c2ccccc2)cc1 | 1.41 µM | 2.92 µM | 0.45 µM | 1.79 µM | 0.675 µM | 2.05 µM | 0.804 µM | 2.2 µM | 0.493 µM | 1.4 µM | 0.44 µM | 1.65 µM | 1.34 µM | 4.16 µM | 1.15 µM | 3.71 µM
CN(C)C/C=C/C(=O)Nc1cc2c(Nc3ccc(F)c(Cl)c3)ncnc2cc1O[C@H]1CCOC1 | 2.28 µM and 2.18 µM | 9.6 µM and > 10 µM | 0.0189 µM and 0.00532 µM | 1.15 µM and 2.74 µM | 1.38 µM and 1.5 µM | 4.63 µM and > 7.89 µM | 2.87 µM and 3.46 µM | 11.7 µM and > 10 µM | 1.31 µM and 2.11 µM | 2.75 µM and > 5.59 µM | 0.762 µM and 0.322 µM | 16.4 µM and > 10 µM | 0.884 µM and 0.244 µM | 12.7 µM and > 10 µM | 1.48 µM and 0.983 µM | 10.7 µM and 8.33 µM
CN(C)C(=S)Sc1ccc([N+](=O)[O-])cc1[N+](=O)[O-] | 3.22 µM | 9.93 µM | 0.482 µM | 1.6 µM | 1.1 µM | 2.79 µM | 0.74 µM | 4.57 µM | 1.73 µM | 5.82 µM | 1.79 µM | 6.29 µM | 2.59 µM | 6.89 µM | 7.53 µM | 20.5 µM
O=C(CNS(=O)(=O)Cc1ccccc1)NNc1ccccc1 |  | > 100 µM |  | > 100 µM |  | > 100 µM |  | > 100 µM |  | > 100 µM |  | > 100 µM |  | > 100 µM |  | > 100 µM
Cn1c(Nc2ccc(C(F)(F)F)cc2)nc2cc(Oc3ccnc(-c4ncc(C(F)(F)F)[nH]4)c3)ccc21 | 0.155 µM | 12.2 µM | 0.307 µM | 11 µM | 0.578 µM | 12.7 µM | 0.197 µM | 7.61 µM | 0.34 µM | 4.96 µM | 0.239 µM | 10.2 µM | 2.05 µM | 17.3 µM | 0.297 µM | 26.2 µM
Nc1c(C(=O)c2ccccc2)cnn1-c1ccc(F)cc1 | > 25 µM | > 25 µM | > 25 µM | > 25 µM | > 25 µM | > 25 µM | > 25 µM | > 25 µM | > 25 µM | > 25 µM | > 25 µM | > 25 µM | > 25 µM | > 25 µM | > 25 µM | > 25 µM
Clc1nc(Cl)nc(Nc2cccc3ccccc23)n1 |  |  |  |  | 94.7 µM | > 100 µM | > 100 µM | > 100 µM | 67.3 µM | > 100 µM | 26.5 µM | > 100 µM | > 100 µM | > 100 µM | > 100 µM | > 100 µM
BrCc1cccc(C[P+](c2ccccc2)(c2ccccc2)c2ccccc2)c1 | 34.5 µM | > 100 µM | 6.88 µM | > 100 µM | 22.3 µM | > 100 µM | 25 µM | > 100 µM | 5.14 µM | 24 µM | > 100 µM | > 100 µM | 52.9 µM | > 100 µM | 6.78 µM | > 100 µM
